Data published in patent US20070270475A1, “4-Methoxy-Pyrrolidine-2-Carboxylic Acid Compounds and Derivatives Thereof as Hepatitis C Virus Inhibitors” (priority 2004, published 2007).

Each compound was assayed on Huh-7 HCV replicon cells (genotype 1a) (assay: Replicon ELISA cell based assay, genotype 1a). Details: Hepatitis C virus, Huh-7 genotype 1a replicon, 72 hours.
Parameters: species or system HCV genotype 1a
Description: Replicon ELISA Cell Based Assay
100 μL of medium containing 10% FCS were added to each well of clear, flat-bottomed 96 well microplates, excepting wells in the top row. Test compound was diluted in assay medium to twice the final required starting concentration from a 40 mM stock solution in DMSO. 200 μL of the starting dilution were introduced into two wells each in the top row and doubling dilutions made down the plate by the sequential transfer of 100 μL aliquots with thorough mixing in the wells; the final 100 μL were discarded. The two bottom rows were not used for compound dilutions. Huh-7 HCV replicon cell monolayers nearing confluency were stripped from growth flasks with versene-trypsin solution and the cells were resuspended in assay medium at either 2×10^5 cells/mL (sub-line 5-15; genotype 1b; Lohmann, V., Korner, F., Koch, J-O., Herian, U., Thielmann, L. and Bartenschlager, R., 1999, Science, 285, pp 110-113) or at 3×10^5 cells/mL (genotype 1a; Gu, B., Gates, A.T., Isken, O., Behrens, S. E. and Sarisky, R. T., J. Virol., 2003, 77, 5352-5359). 100 μL of cell suspension were added to all wells and the plates incubated at 37° C. for 72 hours in a 5% CO2 atmosphere.
Following incubation, the assay medium was aspirated from the plates. The cell sheets were washed by gentle immersion in phosphate buffered saline (PBS), which was then aspirated off, and fixed with acetone:methanol (1:1) for 5 minutes. Following a further wash with PBS, 100 μL of ELISA diluent (PBS+0.05% v/v Tween 20+2% w/v skimmed milk powder) were added to all wells and the plates incubated at 37° C. for 30 minutes on an orbital platform. The diluent was removed and each well then received 50 μL of a 1/200 dilution of anti-HCV specific, murine, monoclonal antibody (either Virostat #1872 or #1877), except for wells in one of the compound-free control rows which received diluent alone to act as negative controls. The plates were incubated at 37° C. for 2 hours and washed 3 times with PBS/0.05% Tween 20, then 50 μL of horseradish peroxidase conjugated, anti-mouse, rabbit polyclonal serum (Dako #P0260), diluted 1/1000, were added to all wells. The plates were incubated for a further hour, the antibody removed and the cell sheets washed 5 times with PBS/Tween and blotted dry. The assay was developed by the addition of 50 μL of ortho-phenylenediamine/peroxidase substrate in urea/citrate buffer (SigmaFast, Sigma #P-9187) to each well, and colour allowed to develop for up to 15 minutes. The reaction was stopped by the addition of 25 μL per well of 2 M sulphuric acid and the plates were read at 490 nm on a Fluostar Optima spectrophotometer.
The substrate solution was removed and the plates were washed in tap water, blotted dry and the cells stained with 5% carbol fuchsin in water for 30 minutes. The stain was discarded and the cell sheets washed, dried and examined microscopically to assess cytotoxicity.
The absorbance values from all compound-free wells that had received both primary and secondary antibodies were averaged to obtain a positive control value. The mean absorbance value from the compound-free wells that had not received the primary antibody was used to provide the negative (background) control value. The readings from the duplicate wells at each compound concentration were averaged and, after the subtraction of the mean background from all values, were expressed as a percentage of the positive control signal. The quantifiable and specific reduction of expressed protein detected by the ELISA in the presence of a drug can be used as a measure of replicon inhibition. GraFit software (Erithacus Software Ltd.) was used to plot the curve of percentage inhibition against compound concentration and derive the 50% inhibitory concentration (IC50) for the compound.

Row | SMILES | IC50 [µM]
1 | COC[C@H]1C[C@@](CC(C)C)(C(=O)O)N(C(=O)c2ccc(C(C)(C)C)c(OC)c2)[C@H]1c1nccs1 [Compound B, (2S,4S,5R)-2-isobutyl-1-(3-methoxy-4-tert-butylbenzoyl)-4-methoxymethyl-5-(1,3-thiazol-2-yl)pyrrolidine-2-carboxylic acid, reference compound] | 10 to 100
2 | COC[C@H]1C[C@@](CC(C)C)(C(=O)O)N(C(=O)c2ccc(C(C)(C)C)c(OC)c2)[C@H]1c1ncc(C)s1 (racemic) [Compound C, rel-(2S,4S,5R)-2-isobutyl-1-(3-methoxy-4-tert-butylbenzoyl)-4-methoxymethyl-5-(5-methyl-1,3-thiazol-2-yl)pyrrolidine-2-carboxylic acid, reference compound] | 10 to 100
3 | COC[C@H]1C[C@@](Cn2cccn2)(C(=O)O)N(C(=O)c2ccc(C(C)(C)C)c(OC)c2)[C@H]1c1nccs1 (racemic) [Example 6, rel-(2R,4S,5R)-1-(3-Methoxy-4-tert-butylbenzoyl)-4-(methoxymethyl)-2-(1H-pyrazol-1-ylmethyl)-5-(1,3-thiazol-2-yl)pyrrolidine-2-carboxylic acid] | < 10
4 | COC[C@H]1C[C@@](Cc2cscn2)(C(=O)O)N(C(=O)c2ccc(C(C)(C)C)c(OC)c2)[C@H]1c1nccs1 (single isomer, unassigned; enantiomer a) [Example 12] | < 10
5 | COC[C@H]1C[C@@](Cn2cccn2)(C(=O)O)N(C(=O)c2ccc(C(C)(C)C)c(OC)c2)[C@H]1c1ncc(C)s1 (racemic) [Example 10, rel-(2R,4S,5R)-1-(3-Methoxy-4-tert-butylbenzoyl)-4-(methoxymethyl)-5-(5-methyl-1,3-thiazol-2-yl)-2-(1H-pyrazol-1-ylmethyl)pyrrolidine-2-carboxylic acid] | < 10
6 | COC[C@H]1C[C@@](Cc2nccs2)(C(=O)O)N(C(=O)c2ccc(C(C)(C)C)c(OC)c2)[C@H]1c1ncc(C)s1 (racemic) [Example 8, rel-(2R,4S,5R)-1-(3-Methoxy-4-tert-butylbenzoyl)-4-(methoxymethyl)-5-(5-methyl-1,3-thiazol-2-yl)-2-(1,3-thiazol-2-ylmethyl)pyrrolidine-2-carboxylic acid] | < 10
7 | COC[C@H]1C[C@@](Cc2cscn2)(C(=O)O)N(C(=O)c2ccc(C(C)(C)C)c(OC)c2)[C@H]1c1nccs1 (racemic) [Example 3, rel-(2R,4S,5R)-1-(3-Methoxy-4-tert-butylbenzoyl)-4-(methoxymethyl)-5-(1,3-thiazol-2-yl)-2-(1,3-thiazol-4-ylmethyl)pyrrolidine-2-carboxylic acid] | < 10
8 | COC[C@H]1C[C@@](Cc2ccsn2)(C(=O)O)N(C(=O)c2ccc(C(C)(C)C)c(OC)c2)[C@H]1c1nccs1 (single isomer, unassigned; enantiomer a) [Example 5] | < 10
9 | COC[C@H]1C[C@@](Cn2cccn2)(C(=O)O)N(C(=O)c2ccc(C(C)(C)C)c(OC)c2)[C@H]1c1ncc(C)s1 (single isomer, unassigned; enantiomer a) [Example 11] | < 10
10 | COC[C@H]1C[C@@](CC(C)C)(C(=O)O)N(C(=O)c2ccc(C(C)(C)C)c(OC)c2)[C@H]1c1nccs1 (racemic) [Compound A, rel-(2S,4S,5R)-2-isobutyl-1-(3-methoxy-4-tert-butylbenzoyl)-4-methoxymethyl-5-(1,3-thiazol-2-yl)pyrrolidine-2-carboxylic acid, reference compound] | 10 to 100
11 | COC[C@H]1C[C@@](Cc2cscn2)(C(=O)O)N(C(=O)c2ccc(C(C)(C)C)c(OC)c2)[C@H]1c1ncc(C)s1 (racemic) [Example 1, rel-(2R,4S,5R)-1-(3-Methoxy-4-tert-butylbenzoyl)-4-(methoxymethyl)-5-(5-methyl-1,3-thiazol-2-yl)-2-(1,3-thiazol-4-ylmethyl)pyrrolidine-2-carboxylic acid] | < 10
12 | COC[C@H]1C[C@@](Cc2ccccc2)(C(=O)O)N(C(=O)c2ccc(C(C)(C)C)c(OC)c2)[C@H]1c1nccs1 (racemic) [Compound E, rel-(2R,4S,5R)-2-benzyl-1-(3-methoxy-4-tert-butylbenzoyl)-4-methoxymethyl-5-(1,3-thiazol-2-yl)-pyrrolidine-2-carboxylic acid, reference compound] | > 100
13 | COC[C@H]1C[C@@](Cc2ccsn2)(C(=O)O)N(C(=O)c2ccc(C(C)(C)C)c(OC)c2)[C@H]1c1ncc(C)s1 (racemic) [Example 9, rel-(2R,4S,5R)-1-(3-Methoxy-4-tert-butylbenzoyl)-4-(methoxymethyl)-5-(5-methyl-1,3-thiazol-2-yl)-2-(1,2-thiazol-3-ylmethyl)pyrrolidine-2-carboxylic acid] | < 10
14 | COC[C@H]1C[C@@](Cn2cccn2)(C(=O)O)N(C(=O)c2ccc(C(C)(C)C)c(OC)c2)[C@H]1c1nccs1 (single isomer, unassigned) [Example 7] | < 10
15 | COCC1CC(CC(C)C)(C(=O)O)N(C(=O)c2ccc(C(C)(C)C)c(OC)c2)C1c1ncc(C)s1 (single isomer, unassigned; enantiomer a) [Compound D, reference compound] | 10 to 100
16 | COC[C@H]1C[C@@](Cc2cscn2)(C(=O)O)N(C(=O)c2ccc(C(C)(C)C)c(OC)c2)[C@H]1c1ncc(C)s1 (single isomer, unassigned; enantiomer a) [Example 2] | < 10
17 | COC[C@H]1C[C@@](Cc2ccsn2)(C(=O)O)N(C(=O)c2ccc(C(C)(C)C)c(OC)c2)[C@H]1c1nccs1 (racemic) [Example 4, rel-(2R,4S,5R)-1-(3-Methoxy-4-tert-butylbenzoyl)-4-(methoxymethyl)-5-(1,3-thiazol-2-yl)-2-(1,2-thiazol-3-ylmethyl)pyrrolidine-2-carboxylic acid] | < 10
